Experimental data: EP0973746B1, “SUBSTITUTED 3-CYANO QUINOLINES” (Wyeth Holdings Corporation, priority 1997, dated 1998)
≈ marks a conversion by molar mass, not a printed value. Like-named read-outs stand apart in the source and are kept apart here. Blank lines part the entries; values can stand above or below the compound they belong to.

Experiments:
[1] = system: SKBR3; assay: Inhibition of cell growth by incorporation of [3H]-thymidine, SKBR3; type: cell-based, human
Protocol: (§1) Representative compounds of this invention were evaluated for their ability to inhibit the growth of the cell lines described below in vitro. The inhibition is quantitated by measuring the decrease in the incorporation of radio-labeled thymidine when the cells are grown in the presence of the inhibitor. […] Cells were routinely grown in a humidified incubator in 5% CO2 in air.
(§2) Cells were seeded at 10,000 cells/well in 96 well plates in complete media and allowed to grow to log phase. At this stage the complete media was replaced with media containing 0.5% FBS (for cells growing in 10% FBS) or media lacking epidermal growth factor (EGF) (for cells growing in serum free media). […] Media with test compound was then removed and complete media was added back. The cells were allowed to grow for 18 hours. This is followed by incubation in [^3H]thymidine (1mCi/ml in serum/EGF media) for 4 hours. Cells were lysed in 0.5 M NaOH for at least 30 min at 37°C and radioactivity analyzed.
(§3) The % inhibition of the compound evaluated was determined for at least three different concentrations and the IC50 value evaluated from the dose response curve. […] CPM(control) is in units of counts per minute and is a number expressing the amount of [^3H]thymidine incorporated onto the DNA when cells are grown in the absence of test compound as measured by liquid scintillation counting.

[2] = system: NEU-3T3; assay: Inhibition of cell growth by incorporation of [3H]-thymidine, Neu-3T3; type: cell-based, mouse; details: [3H]-thymidine incorporation
Protocol: as §1, §2, §3

[3] = system: A431; assay: Inhibition of cell growth by incorporation of [3H]-thymidine, A431; type: cell-based, human; details: [3H]-thymidine incorporation, A431, read-out: IC50 A431
[4] = system: NHEK; assay: Inhibition of cell growth by incorporation of [3H]-thymidine, NHEK; type: cell-based, human; details: [3H]-thymidine incorporation, read-out: IC50 NHEK
[5] = system: CX1; assay: Inhibition of cancer cell growth as measured by cell number, CX1; type: cell-based; details: Homo sapiens, CX-1; cell number, Sulforhodamine B, 48 hours exposure; Table 4; read-out: IC50 CX1
[6] = system: SW948; assay: Inhibition of cancer cell growth as measured by cell number, SW948; type: cell-based; details: Homo sapiens, SW948; cell number, Sulforhodamine B, 48 hours exposure; Table 5; read-out: IC50 SW948
[7] = system: PC3; assay: Inhibition of cancer cell growth as measured by cell number, PC3; type: cell-based; details: Homo sapiens, PC-3; cell number, Sulforhodamine B, 48 hours exposure; Table 7; read-out: IC50 PC3
[8] = molecular target: epidermal growth factor receptor kinase (Homo sapiens, UniProt P00533); assay: biochemical
epidermal growth factor receptor kinase, sequence (P00533 25-1210): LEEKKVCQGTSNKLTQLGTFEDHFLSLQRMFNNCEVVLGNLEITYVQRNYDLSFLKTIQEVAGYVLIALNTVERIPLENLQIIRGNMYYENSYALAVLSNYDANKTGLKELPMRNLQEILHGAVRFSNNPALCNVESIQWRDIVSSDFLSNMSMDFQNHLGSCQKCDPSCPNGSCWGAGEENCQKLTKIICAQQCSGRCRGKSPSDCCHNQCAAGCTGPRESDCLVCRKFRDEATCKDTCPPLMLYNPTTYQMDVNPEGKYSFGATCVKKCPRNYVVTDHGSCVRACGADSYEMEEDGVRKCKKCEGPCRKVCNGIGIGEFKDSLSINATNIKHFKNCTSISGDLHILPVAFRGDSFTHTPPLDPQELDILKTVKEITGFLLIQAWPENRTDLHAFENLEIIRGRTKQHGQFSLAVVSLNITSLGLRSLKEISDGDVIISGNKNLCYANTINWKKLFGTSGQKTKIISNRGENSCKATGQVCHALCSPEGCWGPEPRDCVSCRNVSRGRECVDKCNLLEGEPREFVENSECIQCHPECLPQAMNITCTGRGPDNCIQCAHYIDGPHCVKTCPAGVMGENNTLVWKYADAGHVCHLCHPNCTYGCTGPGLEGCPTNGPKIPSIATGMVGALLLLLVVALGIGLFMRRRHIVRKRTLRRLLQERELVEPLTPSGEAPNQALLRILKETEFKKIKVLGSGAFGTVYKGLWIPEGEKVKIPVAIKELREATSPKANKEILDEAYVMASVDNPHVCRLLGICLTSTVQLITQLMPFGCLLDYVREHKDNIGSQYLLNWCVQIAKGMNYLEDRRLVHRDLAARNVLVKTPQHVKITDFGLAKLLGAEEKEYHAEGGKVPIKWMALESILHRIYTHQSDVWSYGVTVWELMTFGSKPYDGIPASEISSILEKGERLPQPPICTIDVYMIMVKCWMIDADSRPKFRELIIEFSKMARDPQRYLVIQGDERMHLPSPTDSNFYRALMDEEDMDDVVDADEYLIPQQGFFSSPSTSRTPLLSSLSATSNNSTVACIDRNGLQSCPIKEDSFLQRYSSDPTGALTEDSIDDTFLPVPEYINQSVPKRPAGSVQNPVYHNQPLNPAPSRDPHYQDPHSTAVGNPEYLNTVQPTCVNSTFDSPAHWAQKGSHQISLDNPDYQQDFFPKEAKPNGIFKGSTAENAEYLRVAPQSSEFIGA

[9] = system: A431; assay: Inhibition of cancer cell growth as measured by cell number, A431; type: cell-based, human; details: Homo sapiens, A-431, 48 h, cell number, Sulforhodamine B, 48 hours exposure, read-out: IC50 A431;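 also: human A431 line, picked because it overexpresses epidermal growth factor receptor (EGFR)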
Description: (§4) The cell lines were chosen since they overexpressed epidermal growth factor receptor (EGFR) (i.e. A431) or HER2/neu (SKBR3), or had little to no expression of the these receptors (SW620, LOX, MCF7).

[10] = system: LX1; assay: Inhibition of cancer cell growth as measured by cell number, LX1; type: cell-based; details: Homo sapiens, LX-1; cell number, Sulforhodamine B, 48 hours exposure; Table 6; read-out: IC50 LX1
[11] = system: A2780DDP; assay: Inhibition of cancer cell growth as measured by cell number, A2780DDP; type: cell-based; details: Homo sapiens; cell number, Sulforhodamine B, 48 hours exposure; Table 4; read-out: IC50 A2780DDP
[12] = system: COLO205; assay: Inhibition of cancer cell growth as measured by cell number, COLO205; type: cell-based; details: Homo sapiens, COLO 205; cell number, Sulforhodamine B, 48 hours exposure; Table 4; read-out: IC50 COLO205
[13] = system: NEC; assay: Inhibition of cancer cell growth as measured by cell number, NEC; type: cell-based; details: Homo sapiens; cell number, Sulforhodamine B, 48 hours exposure; Table 6; read-out: IC50 NEC
[14] = system: CCRF-CFM; assay: Inhibition of cancer cell growth as measured by cell number, CCRF-CFM; type: cell-based; details: Homo sapiens; cell number, Sulforhodamine B, 48 hours exposure; Table 7; read-out: IC50 CCRF-CFM
[15] = system: LNCAP; assay: Inhibition of cancer cell growth as measured by cell number, LNCAP; type: cell-based; details: Homo sapiens, cell number, Sulforhodamine B, 48 hours exposure, Table 7, read-out: IC50 LNCAP
[16] = system: CACO2; assay: Inhibition of cancer cell growth as measured by cell number, CACO2; type: cell-based; details: Homo sapiens, Caco-2; cell number, Sulforhodamine B, 48 hours exposure; Table 5; read-out: IC50 CACO2
[17] = system: T47D; assay: Inhibition of cancer cell growth as measured by cell number, T47D; type: cell-based; details: Homo sapiens, cell number, Sulforhodamine B, 48 hours exposure, Table 6, read-out: IC50 T47D
[18] = system: MIP; assay: Inhibition of cancer cell growth as measured by cell number, MIP; type: cell-based; details: Homo sapiens; cell number, Sulforhodamine B, 48 hours exposure; Table 4; read-out: IC50 MIP
[19] = system: CCL228; assay: Inhibition of cancer cell growth as measured by cell number, CCL228; type: cell-based; details: Homo sapiens; cell number, Sulforhodamine B, 48 hours exposure; Table 5; read-out: IC50 CCL228
[20] = system: DU145; assay: Inhibition of cancer cell growth as measured by cell number, DU145; type: cell-based; details: Homo sapiens, DU-145; cell number, Sulforhodamine B, 48 hours exposure; Table 7; read-out: IC50 DU145
[21] = system: HCT15; assay: Inhibition of cancer cell growth as measured by cell number, HCT15; type: cell-based; details: Homo sapiens, HCT-15; cell number, Sulforhodamine B, 48 hours exposure; Table 5; read-out: IC50 HCT15
[22] = system: LOX; assay: Inhibition of cancer cell growth as measured by cell number, LOX; type: cell-based, human; details: Homo sapiens, LOX, 48 h, cell number, Sulforhodamine B, 48 hours exposure, read-out: IC50 LOX;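 also: LOX cells served as a line with low or absent EGFR and HER2/neu expression, in contrast to receptor-overexpressing lines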
Description: as §4

[23] = system: A27805; assay: Inhibition of cancer cell growth as measured by cell number, A27805; type: cell-based; details: Homo sapiens; cell number, Sulforhodamine B, 48 hours exposure; Table 4; read-out: IC50 A27805
[24] = system: A549; assay: Inhibition of cancer cell growth as measured by cell number, A549; type: cell-based; details: Homo sapiens, A549; cell number, Sulforhodamine B, 48 hours exposure; Table 6; read-out: IC50 A549
[25] = system: HL60; assay: Inhibition of cancer cell growth as measured by cell number, HL60; type: cell-based; details: Homo sapiens, HL-60; cell number, Sulforhodamine B, 48 hours exposure; Table 7; read-out: IC50 HL60
[26] = system: SW620; assay: Inhibition of cancer cell growth as measured by cell number, SW620; type: cell-based, human; details: Homo sapiens, SW-620, 48 h, cell number, Sulforhodamine B, 48 hours exposure, read-out: IC50 SW620;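 also: SW620 was included as a cell line with little or no EGFR or HER2/neu expression, in contrast to receptor-overexpressing lines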
Description: as §4

[27] = system: B7474; assay: Inhibition of cancer cell growth as measured by cell number, B7474; type: cell-based; details: Homo sapiens; cell number, Sulforhodamine B, 48 hours exposure; Table 6; read-out: IC50 B7474
[28] = system: MCF7; assay: Inhibition of cancer cell growth as measured by cell number, MCF7; type: cell-based, human; details: Homo sapiens, MCF7, 48 h, cell number, Sulforhodamine B, 48 hours exposure, read-out: IC50 MCF7;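 also: MCF7 was included as a line with little or no EGFR or HER2/neu expression, in contrast to the receptor-overexpressing lines of the panel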
Description: as §4

[29] = system: LS174T; assay: Inhibition of cancer cell growth as measured by cell number, LS174T; type: cell-based; details: Homo sapiens, cell number, Sulforhodamine B, 48 hours exposure, Table 5, read-out: IC50 LS174T
[30] = system: HTB161; assay: Inhibition of cancer cell growth as measured by cell number, HTB161; type: cell-based; details: Homo sapiens; cell number, Sulforhodamine B, 48 hours exposure; Table 4; read-out: IC50 HTB161
[31] = system: SKBR3; assay: Inhibition of cancer cell growth as measured by cell number, SKBR3; type: cell-based, human; details: Homo sapiens, SK-BR-3; cell number, Sulforhodamine B, 48 hours exposure; Table 8; read-out: IC50 SKBR3;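 also: SK-BR-3 cells were selected as a line overexpressing HER2/neu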
Description: as §4

IC50 ([1]; [3H]-thymidine incorporation): > 50000 nM
IC50 [3]: 100 nM
Structure (SMILES): CCOC(=O)c1cnc2cc(OC)c(OC)cc2c1O [Example 26, 3-Carbethoxy-4-hydroxy-6.7-dimethoxyquinoline]
IC50 [2]: > 50000 nM
IC50 [4]: 400 nM

Structure (SMILES): COc1cc2ncc(C#N)c(Nc3cccc(Br)c3)c2cc1OC [Example 31, 4-[(3-Bromophenyl)amino]-6,7-dimethoxy-3-quinolinecarbonitrile]
IC50 [5]: 0.97 µg/mL (≈ 2.52 µM)
IC50 [6]: 5.48 µg/mL (≈ 14.3 µM)
IC50 [7]: 5.16 µg/mL (≈ 13.4 µM)
IC50 [8]: 1.5 nM
IC50 ([9]; Table 6): 0.434 µg/mL (≈ 1.13 µM)
IC50 ([9]; Table 8): 0.1 µg/mL (≈ 0.26 µM)
IC50 [10]: 6.88 µg/mL (≈ 17.9 µM)
IC50 [11]: 1.17 µg/mL (≈ 3.03 µM)
IC50 [12]: 3.1 µg/mL (≈ 8.06 µM)
IC50 [13]: 2.23 µg/mL (≈ 5.81 µM)
IC50 ([1]; Homo sapiens, SK-BR-3, [3H]-thymidine incorporation): 25000 nM
IC50 [14]: 3.19 µg/mL (≈ 8.3 µM)
IC50 [15]: 0.772 µg/mL (≈ 2.01 µM)
IC50 [16]: 0.925 µg/mL (≈ 2.41 µM)
IC50 [17]: 3.33 µg/mL (≈ 8.67 µM)
IC50 [18]: 0.748 µg/mL (≈ 1.95 µM)
IC50 [19]: 4.91 µg/mL (≈ 12.8 µM)
IC50 [20]: 0.585 µg/mL (≈ 1.52 µM)
IC50 [21]: 0.727 µg/mL (≈ 1.89 µM)
IC50 ([22]; Table 6): 0.871 µg/mL (≈ 2.27 µM)
IC50 ([22]; Table 8): 1.65 µg/mL (≈ 4.29 µM)
IC50 [23]: 2.03 µg/mL (≈ 5.28 µM)
IC50 [24]: 2.27 µg/mL (≈ 5.91 µM)
IC50 [25]: 0.894 µg/mL (≈ 2.33 µM)
IC50 ([26]; Table 4): 4.54 µg/mL (≈ 11.8 µM)
IC50 ([26]; Table 8): 0.82 µg/mL (≈ 2.13 µM)
IC50 ([3]; Homo sapiens, A-431): 200 nM
IC50 ([4]; Homo sapiens): 3 nM
IC50 [27]: 1.58 µg/mL (≈ 4.1 µM)
IC50 ([28]; Table 5): 5.66 µg/mL (≈ 14.7 µM)
IC50 ([28]; Table 8): 6.04 µg/mL (≈ 15.7 µM)
IC50 [29]: 0.885 µg/mL (≈ 2.3 µM)
IC50 [30]: 0.793 µg/mL (≈ 2.06 µM)
IC50 [31]: 0.48 µg/mL (≈ 1.25 µM)
